Patent US9371320B2, “Heterocyclic compound” (TAKEDA PHARMACEUTICAL COMPANY LIMITED, priority 2012, dated 2016)
Read-outs that look alike come from different tables or passages of the source.

What was measured:
Tyk2 = target: T1, Tyk2 (Homo sapiens, UniProt P29597); assay: Tyk2 enzyme inhibition test (LANCE method); type: biochemical; settings: for inhibition at 1 µM: test compound 1 μM, read-out: Inhibitory rate (%) Tyk2 1 μM; for inhibition at 10 µM: test compound 10 μM, read-out: Inhibitory rate (%) Tyk2 10 μM
T1 construct: purchased Invitrogen
T1 sequence (P29597 whole entry): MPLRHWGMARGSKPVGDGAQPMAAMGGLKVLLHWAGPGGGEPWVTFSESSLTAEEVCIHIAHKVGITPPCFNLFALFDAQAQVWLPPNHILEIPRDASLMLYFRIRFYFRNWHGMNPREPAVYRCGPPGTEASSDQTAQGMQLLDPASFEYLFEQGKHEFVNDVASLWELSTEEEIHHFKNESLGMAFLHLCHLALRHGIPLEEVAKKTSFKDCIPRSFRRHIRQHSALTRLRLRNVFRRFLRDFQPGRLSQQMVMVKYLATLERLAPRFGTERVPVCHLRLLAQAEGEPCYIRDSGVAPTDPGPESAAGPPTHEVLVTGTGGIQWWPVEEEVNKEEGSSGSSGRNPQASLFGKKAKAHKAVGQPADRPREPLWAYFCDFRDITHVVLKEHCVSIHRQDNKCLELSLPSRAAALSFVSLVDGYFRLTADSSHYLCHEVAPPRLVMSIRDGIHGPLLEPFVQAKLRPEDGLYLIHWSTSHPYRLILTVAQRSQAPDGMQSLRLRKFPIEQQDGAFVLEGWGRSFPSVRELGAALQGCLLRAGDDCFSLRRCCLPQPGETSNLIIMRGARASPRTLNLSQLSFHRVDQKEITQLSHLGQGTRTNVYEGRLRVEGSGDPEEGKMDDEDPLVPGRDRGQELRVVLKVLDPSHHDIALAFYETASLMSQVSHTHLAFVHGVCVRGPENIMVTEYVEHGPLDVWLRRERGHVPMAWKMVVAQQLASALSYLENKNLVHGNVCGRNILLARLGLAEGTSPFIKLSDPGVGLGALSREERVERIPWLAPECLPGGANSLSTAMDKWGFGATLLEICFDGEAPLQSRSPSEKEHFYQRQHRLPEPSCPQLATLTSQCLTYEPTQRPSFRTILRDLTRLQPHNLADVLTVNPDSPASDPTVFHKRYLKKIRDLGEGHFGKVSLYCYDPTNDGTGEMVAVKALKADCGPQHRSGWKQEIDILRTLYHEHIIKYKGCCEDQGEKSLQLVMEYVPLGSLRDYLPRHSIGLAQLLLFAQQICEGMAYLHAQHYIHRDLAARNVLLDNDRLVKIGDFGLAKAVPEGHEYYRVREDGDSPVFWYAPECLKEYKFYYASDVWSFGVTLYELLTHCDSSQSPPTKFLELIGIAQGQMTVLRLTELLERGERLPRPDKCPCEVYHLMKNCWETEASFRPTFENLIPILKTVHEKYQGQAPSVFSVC
Method: Tyk2 Enzyme Inhibition Test
(§1) Tyk2 enzyme inhibitory activity of test compounds was measured by LANCE method (PerkinElmer). First, a test compound diluted with assay buffer (50 mM HEPES (pH=7.5), 10 mM MgCl2, 1 mM EGTA, 2 mM DTT, 0.01% Tween20, 0.01% BSA) was added to 384-well plate at 2 μL each. Then, a Tyk2 (Invitrogen) solution and a fluorescence-labeled peptide substrate (ULight-JAK1, PerkinElmer) solution diluted with assay buffer at 375 ng/mL and 300 nM, respectively were added at 2 μL each. Then, enzyme reaction was started by adding 2 μL each of ATP solution prepared with assay buffer at 30 μM. After the reaction at room temperature for 1 hr, Detection Buffer (PerkinElmer) prepared to be 20 mM EDTA, 4 nM europium-labeled anti-phosphotyrosine antibody (PerkinElmer) was added at 6 μL each. After standing at room temperature for 1 hr, fluorescence intensity (excitation wavelength 340 nm, fluorescence wavelength 665 nm, delay time 100 microsecond) was measured by a plate reader, Envision (PerkinElmer). The inhibitory activity of each compound was calculated as relative value where fluorescence intensity of a well without enzyme is considered as 100% inhibition.

JAK1 = target: T2, JAK1 (Homo sapiens, UniProt P23458); assay: JAK1 enzyme inhibition test (LANCE method); type: biochemical; settings: for inhibition at 1 µM: test compound 1 μM, read-out: Inhibitory rate (%) JAK1 1 μM; for inhibition at 10 µM: read-out: Inhibitory rate (%) JAK1 10 μM
T2 construct: purchased Invitrogen
T2 sequence (P23458 whole entry): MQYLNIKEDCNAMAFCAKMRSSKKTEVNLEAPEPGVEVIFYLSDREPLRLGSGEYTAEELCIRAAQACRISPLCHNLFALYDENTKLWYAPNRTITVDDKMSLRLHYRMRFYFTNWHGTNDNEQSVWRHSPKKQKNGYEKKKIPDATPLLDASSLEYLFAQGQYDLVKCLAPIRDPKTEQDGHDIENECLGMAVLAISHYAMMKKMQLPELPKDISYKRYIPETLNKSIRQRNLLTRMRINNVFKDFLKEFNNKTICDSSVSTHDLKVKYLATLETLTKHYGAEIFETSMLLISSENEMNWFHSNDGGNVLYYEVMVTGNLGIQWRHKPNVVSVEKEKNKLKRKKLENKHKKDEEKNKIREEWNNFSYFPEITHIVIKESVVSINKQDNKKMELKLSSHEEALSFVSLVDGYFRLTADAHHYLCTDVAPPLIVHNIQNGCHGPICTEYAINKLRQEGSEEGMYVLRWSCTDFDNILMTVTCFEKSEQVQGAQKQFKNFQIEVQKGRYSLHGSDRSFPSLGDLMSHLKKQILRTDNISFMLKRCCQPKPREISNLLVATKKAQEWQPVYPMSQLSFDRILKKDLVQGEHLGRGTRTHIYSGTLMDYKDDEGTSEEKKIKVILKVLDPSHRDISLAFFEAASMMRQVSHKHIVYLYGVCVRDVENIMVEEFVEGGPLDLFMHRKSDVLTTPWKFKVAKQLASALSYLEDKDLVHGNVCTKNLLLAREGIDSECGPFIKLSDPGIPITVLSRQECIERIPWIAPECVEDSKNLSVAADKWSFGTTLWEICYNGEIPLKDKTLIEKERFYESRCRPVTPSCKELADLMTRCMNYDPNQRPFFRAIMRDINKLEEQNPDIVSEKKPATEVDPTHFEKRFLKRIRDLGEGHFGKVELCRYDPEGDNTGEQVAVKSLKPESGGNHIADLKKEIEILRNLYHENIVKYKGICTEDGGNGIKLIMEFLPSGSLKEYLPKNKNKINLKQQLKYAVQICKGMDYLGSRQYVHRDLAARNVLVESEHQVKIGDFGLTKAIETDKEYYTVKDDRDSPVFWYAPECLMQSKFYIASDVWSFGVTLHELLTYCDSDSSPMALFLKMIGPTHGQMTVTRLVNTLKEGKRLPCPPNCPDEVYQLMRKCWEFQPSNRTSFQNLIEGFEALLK
Method: JAK1 Enzyme Inhibition Test
as §1, with “JAK1 enzyme” for “Tyk2 enzyme”, “a JAK1” for “a Tyk2”, “at 187.5” for “at 375”, “at 150” for “at 30”

[1] = test compound 10 μM (Ex. 182-220), beside Tyk2 1 μM

Row | Compound | inhibition at 1 µM (Tyk2) [%] | inhibition at 1 µM (JAK1) [%] | inhibition at 10 µM (JAK1; [1]) [%] | inhibition at 10 µM (Tyk2) [%] | inhibition at 10 µM (JAK1; test compound 10 μM) [%]
1 | NC(=O)c1cccc(-c2nn(-c3c(F)cccc3F)c3c(Cl)c[nH]c(=O)c23)c1 [Example 254, 3-(7-chloro-1-(2,6-difluorophenyl)-4-oxo-4,5-dihydro-1H-pyrazolo[4,3-c]pyridin-3-yl)benzamide] | 98 | 65 |  |  | 
2 | NS(=O)(=O)c1ccc(-c2nn(-c3c(F)cccc3F)c3cc[nH]c(=O)c23)cc1 [Example 35, 4-(1-(2,6-difluorophenyl)-4-oxo-4,5-dihydro-1H-pyrazolo[4,3-c]pyridin-3-yl)benzenesulfonamide] | 97 | 99 |  |  | 
3 | O=c1[nH]ccc2c1c(-c1ccc(N3CCOCC3)nc1)nn2-c1c(F)cccc1F [Example 309, 1-(2,6-difluorophenyl)-3-(6-(morpholin-4-yl)pyridin-3-yl)-1,5-dihydro-4H-pyrazolo[4,3-c]pyridin-4-one] | 99 | 93 |  |  | 
4 | N#CCc1ccc(-c2nn(C3CCCC3)c3cc[nH]c(=O)c23)cc1 [Example 127, (4-(1-cyclopentyl-4-oxo-4,5-dihydro-1H-pyrazolo[4,3-c]pyridin-3-yl)phenyl)acetonitrile] | 97 | 99 |  |  | 
5 | CC[C@@H](COC)n1nc(-c2csc(C(N)=O)c2)c2c(=O)[nH]ccc21 [Example 262, 4-(1-((2S)-1-methoxybutan-2-yl)-4-oxo-4,5-dihydro-1H-pyrazolo[4,3-c]pyridin-3-yl)thiophene-2-carboxamide] | 92 | 97 |  |  | 
6 | N#Cc1cc(-c2nn(-c3c(F)cccc3F)c3c(Cl)c[nH]c(=O)c23)ccc1N1CCOCC1 [Example 200, 5-(7-chloro-1-(2,6-difluorophenyl)-4-oxo-4,5-dihydro-1H-pyrazolo[4,3-c]pyridin-3-yl)-2-(morpholin-4-yl)benzonitrile] | 98 |  | 22 |  | 
7 | N#CCc1cc(-c2nn(-c3c(F)cccc3F)c3c(Cl)c[nH]c(=O)c23)cs1 [Example 152, (4-(7-chloro-1-(2,6-difluorophenyl)-4-oxo-4,5-dihydro-1H-pyrazolo[4,3-c]pyridin-3-yl)-2-thienyl)acetonitrile] | 99 | 97 |  |  | 
8 | NC(=O)Cc1cccc(-c2nn(-c3c(F)cccc3F)c3cc[nH]c(=O)c23)c1 [Example 252, 2-(3-(1-(2,6-difluorophenyl)-4-oxo-4,5-dihydro-1H-pyrazolo[4,3-c]pyridin-3-yl)phenyl)acetamide] | 98 | 91 |  |  | 
9 | CC1(C)CCCC1n1nc(-c2ccc(N3CCOCC3)cc2)c2c(=O)[nH]ccc21 (stereo not drawn) [Example 314, 1-(2,2-dimethylcyclopentyl)-3-(4-(morpholin-4-yl)phenyl)-1,5-dihydro-4H-pyrazolo[4,3-c]pyridin-4-one] | 99 | 95 |  |  | 
10 | O=c1[nH]cc(Cl)c2c1c(C1CC1)nn2-c1c(F)cccc1F [Example 208, 7-chloro-3-cyclopropyl-1-(2,6-difluorophenyl)-1,5-dihydro-4H-pyrazolo[4,3-c]pyridin-4-one] |  |  |  | 83 | 28
11 | N#Cc1c[nH]c(=O)c2c(-c3csc(C(N)=O)c3)cn(C3CCCC3)c12 [Example 33, 4-(7-cyano-1-cyclopentyl-4-oxo-4,5-dihydro-1H-pyrrolo[3,2-c]pyridin-3-yl)thiophene-2-carboxamide] | 99 | 99 |  |  | 
12 | N#CCn1cc(-c2cn(C3CCCC3)c3c(C#N)c[nH]c(=O)c23)cn1 [Example 99, 3-(1-(cyanomethyl)-1H-pyrazol-4-yl)-1-cyclopentyl-4-oxo-4,5-dihydro-1H-pyrrolo[3,2-c]pyridine-7-carbonitrile] | 99 | 97 |  |  | 
13 | O=c1[nH]ccc2c1c(-c1cccc(C(F)(F)F)c1)nn2C1CCCC1 [Example 52, 1-cyclopentyl-3-(3-(trifluoromethyl)phenyl)-1,5-dihydro-4H-pyrazolo[4,3-c]pyridin-4-one] | 46 | 43 |  |  | 
14 | O=C1CCCN1Cc1cc(-c2nn(-c3c(F)cccc3F)c3c(Cl)c[nH]c(=O)c23)cs1 [Example 220, 7-chloro-1-(2,6-difluorophenyl)-3-(5-((2-oxopyrrolidin-1-yl)methyl)-3-thienyl)-1,5-dihydro-4H-pyrazolo[4,3-c]pyridin-4-one] | 100 |  | 98 |  | 
15 | Cc1c[nH]c(=O)c2c(-c3csc(C(N)=O)c3)nn(C3CCCC3)c12 [Example 281, 4-(1-cyclopentyl-7-methyl-4-oxo-4,5-dihydro-1H-pyrazolo[4,3-c]pyridin-3-yl)thiophene-2-carboxamide] | 96 | 96 |  |  | 
16 | CC(=O)Nc1ccc(-c2nn(-c3c(F)cccc3F)c3cc[nH]c(=O)c23)cc1 [Example 277, N-(4-(1-(2,6-difluorophenyl)-4-oxo-4,5-dihydro-1H-pyrazolo[4,3-c]pyridin-3-yl)phenyl)acetamide] | 99 | 95 |  |  | 
17 | CN(C)NC(=O)c1ccc(-c2nn(-c3c(F)cccc3F)c3cc[nH]c(=O)c23)cc1 [Example 289, 4-(1-(2,6-difluorophenyl)-4-oxo-4,5-dihydro-1H-pyrazolo[4,3-c]pyridin-3-yl)-N′,N′-dimethylbenzhydrazide] | 99 | 92 |  |  | 
18 | N#CCNC(=O)c1cc(-c2nn(-c3c(F)cccc3F)c3c(Cl)c[nH]c(=O)c23)cs1 [Example 191, 4-(7-chloro-1-(2,6-difluorophenyl)-4-oxo-4,5-dihydro-1H-pyrazolo[4,3-c]pyridin-3-yl)-N-(cyanomethyl)thiophene-2-carboxamide] | 100 |  | 98 |  | 
19 | O=c1[nH]ccc2c1c(-c1ccc(OC(F)(F)F)cc1)nn2C1CCCC1 [Example 45, 1-cyclopentyl-3-(4-(trifluoromethoxy)phenyl)-1,5-dihydro-4H-pyrazolo[4,3-c]pyridin-4-one] | 74 | 90 |  |  | 
20 | N#CCc1cccc(-c2cn(C3CCCC3)c3c(C#N)c[nH]c(=O)c23)c1 [Example 109, 3-(3-(cyanomethyl)phenyl)-1-cyclopentyl-4-oxo-4,5-dihydro-1H-pyrrolo[3,2-c]pyridine-7-carbonitrile] | 94 | 61 |  |  | 
21 | Nc1ncc(-c2nn(-c3c(F)cccc3F)c3cc[nH]c(=O)c23)cn1 [Example 300, 3-(2-aminopyrimidin-5-yl)-1-(2,6-difluorophenyl)-1,5-dihydro-4H-pyrazolo[4,3-c]pyridin-4-one] | 83 | 68 |  |  | 
22 | O=C(NCCO)c1ccc(-c2nn(-c3c(F)cccc3F)c3c(Cl)c[nH]c(=O)c23)cc1 [Example 232, 4-(7-chloro-1-(2,6-difluorophenyl)-4-oxo-4,5-dihydro-1H-pyrazolo[4,3-c]pyridin-3-yl)-N-(2-hydroxyethyl)benzamide] | 100 | 60 |  |  | 
23 | NS(=O)(=O)c1ccc(-c2nn(-c3ccccc3C(F)(F)F)c3cc[nH]c(=O)c23)cc1 [Example 212, 4-(4-oxo-1-(2-(trifluoromethyl)phenyl)-4,5-dihydro-1H-pyrazolo[4,3-c]pyridin-3-yl)benzenesulfonamide] | 96 |  | 99 |  | 
24 | O=c1[nH]ccc2c1c(-c1ccc(N3CCOCC3)cc1)nn2-c1c(F)cccc1F [Example 179, 1-(2,6-difluorophenyl)-3-(4-(morpholin-4-yl)phenyl)-1,5-dihydro-4H-pyrazolo[4,3-c]pyridin-4-one] | 100 | 94 |  |  | 
25 | COCCNC(=O)c1ccc(-c2nn(-c3c(F)cccc3F)c3c(Cl)c[nH]c(=O)c23)cc1 [Example 231, 4-(7-chloro-1-(2,6-difluorophenyl)-4-oxo-4,5-dihydro-1H-pyrazolo[4,3-c]pyridin-3-yl)-N-(2-methoxyethyl)benzamide] | 99 | 51 |  |  | 
26 | O=c1[nH]ccc2c(-c3ccccc3)nn(-c3ccccc3)c12 [Example 10, 1,3-diphenyl-1,6-dihydro-7H-pyrazolo[3,4-c]pyridin-7-one] |  |  |  | 38 | 
